Source: a compilation of properties of binary mixtures (doi:10.1021/acs.jced.0c00298)

Experiment: xn = mol fraction of the nth substance listed
Details: 100 kPa

CO + CC[n+]1ccn(CCOC)c1.O=S(=O)([N-]S(=O)(=O)C(F)(F)F)C(F)(F)F
x2 = 0
Details	viscosity [mPa·s]
288.15 K	0.623
293.15 K	0.58
298.15 K	0.541
303.15 K	0.505

CC[n+]1ccn(CCOC)c1.O=S(=O)([N-]S(=O)(=O)C(F)(F)F)C(F)(F)F + CO
viscosity [mPa·s]
Details	x1 = 0.1	x1 = 0.1997	x1 = 0.2999	x1 = 0.3966	x1 = 0.5	x1 = 0.5984	x1 = 0.6953	x1 = 0.7934	x1 = 0.9016	x1 = 1
288.15 K	1.982	4.2	–	11.27	–	–	30.4	–	47.6	54.62
293.15 K	1.791	3.71	6.22	9.6	13.37	18.95	25.01	30.37	38.28	–
298.15 K	–	3.297	–	8.27	11.39	16.24	20.9	25.15	31.34	35.49
303.15 K	1.486	2.951	–	7.21	–	13.93	17.85	21.12	26.04	–
308.15 K	1.362	–	–	–	8.55	–	15.37	–	21.94	24.58
313.15 K	1.252	2.408	3.827	5.611	7.51	–	–	–	18.75	20.86
318.15 K	1.155	2.193	–	5.009	6.66	9.11	11.53	13.65	16.34	18.03
